Legend:
[1] = Cytotoxicity against african green monkey Vero cells after 3 days by MTS assay; assay type: cell-based; details: chlorocebus sabaeus
[2] = tested on: Coxsackievirus B3; assay: Antiviral activity against Coxsackievirus B3 infected in african green monkey […] assessed as inhibition of virus-induced cytopathic effect after 3 days by MTS assay; assay type: functional, organism-based; details: for EC50: Enterovirus B, 72 h

| SMILES | CC50 at 72 h [1] [µM] | EC50 [2] [µM] | EC90 [2] [µM] |
| --- | --- | --- | --- |
| OCC1C2COC3C2OC1C3n1cnc2c(Cl)ncnc21 (stereo not drawn) | > 50 | 1.86 |  |
| O[C@H]1C[C@H]2C[C@@H]1C[C@@H]2n1cnc2c(Cl)ncnc21 (relative stereo) | > 50 | 2.44 |  |
| O[C@H]1C[C@@H]2C[C@@H]1C[C@H]2n1cnc2c(Cl)ncnc21 (relative stereo) | > 50 | 1.05 |  |
| Clc1ncnc2c1ncn2[C@H]1C[C@H]2C[C@@H]1[C@@H]1CCC[C@H]21 (relative stereo) | 43.4 | 1.9 |  |
| Clc1ncnc2c1ncn2[C@H]1C[C@H]2C[C@@H]1[C@H](c1ccccc1)C2 (relative stereo) | 13.4 | 2.98 |  |
| O=C1C[C@H]2C[C@@H]1C[C@@H]2n1cnc2c(Cl)ncnc21 (relative stereo) | > 50 | 0.9 | 1.78 |
| OCC1C2COC3C2CC1C3n1cnc2c(Cl)ncnc21 (stereo not drawn) | > 50 | 1.13 |  |
| ClCC1C2COC3C2CC1C3n1cnc2c(Cl)ncnc21 (stereo not drawn) | > 50 | 1 |  |
| O[C@@H]1[C@@H]2C[C@H]([C@@H]1O)[C@@H](n1cnc3c(Cl)ncnc31)C2 (relative stereo) | > 50 | 2.26 | 36.52 |
| Clc1ncnc2c1ncn2[C@H]1C[C@H]2C[C@@H]1C[C@@H]2c1ccccc1 (relative stereo) | 17 | 5.72 |  |
| FC1(F)C[C@H]2C[C@H]1C[C@@H]2n1cnc2c(Cl)ncnc21 (relative stereo) | > 50 | 1 |  |
| CC1(C)[C@H]2CC[C@H](C2)[C@@H]1n1cnc2c(Cl)ncnc21 (relative stereo) | > 50 | 10.9 | >50 |
| Clc1ncnc2c1ncn2[C@H]1[C@@H]2C[C@@H]3CO[C@H]1[C@H]3C2 (relative stereo) | > 50 | 1.27 |  |
| OCC1CC2CC1C(n1cnc3c(Cl)ncnc31)C2 (stereo not drawn) | > 50 | 0.98 |  |
| C[C@@H](NC(=O)c1cccc(-c2cnc(-c3cc4ccccc4cn3)[nH]2)c1)c1ccc(F)cc1 | > 50 | 1.2 |  |
| ClCC1C2COC3C2OC1C3n1cnc2c(Cl)ncnc21 (stereo not drawn) | > 50 | 0.88 |  |
| Clc1ncnc2c1ncn2C[C@H]1C[C@@H]2C=C[C@H]1C2 (relative stereo) | > 50 | 3.58 | 8.49 |

| SMILES | CC50 at 72 h [1] [µM] | EC50 [2] [µM] | EC90 [2] [µM] |
| --- | --- | --- | --- |
| Clc1ncnc2c1ncn2[C@@H]1[C@@H]2C[C@@H]3[C@H]1CO[C@@H]3C2 (relative stereo) | > 50 | 1 |  |
| Clc1ncnc2c1ncn2[C@H]1C[C@H]2C[C@@H]1C[C@@H]2n1cnc2c(Cl)ncnc21 (relative stereo) | > 50 | 22.5 |  |
| Clc1ncnc2c1ncn2[C@H]1C[C@H]2C[C@@H]1c1ccccc12 (relative stereo) | > 50 | 0.66 | >50 |
| Clc1ncnc2c1ncn2C[C@@H]1C[C@H]2CC[C@@H]1C2 (relative stereo) | > 50 | 3.83 | 9.43 |
| Clc1ncnc2c1ncn2[C@@H]1C[C@@H]2C[C@H]1[C@@H]1O[C@@H]21 (relative stereo) | > 50 | 1.03 | 3.46 |
| Clc1ncnc2c1ncn2[C@H]1C2C3C[C@H]1C[C@H]32 (relative stereo) | 43.9 | 1.52 |  |
| Clc1ncnc2c1ncn2[C@H]1C[C@H]2C[C@@H]1c1cc3ccccc3cc12 (relative stereo) | > 50 | > 50 | >50 |
| FC1(F)C[C@@H]2C[C@@H](n3cnc4c(Cl)ncnc43)[C@H]1C2 (relative stereo) | > 50 | 1.16 | 34.4 |
| O[C@@H]1C[C@H]2C[C@@H]1[C@H](n1cnc3c(Cl)ncnc31)C2 (relative stereo) | > 50 | 1.3 |  |
| CC1(C)[C@@H]2CC[C@@]1(C)[C@H](n1cnc3c(Cl)ncnc31)C2 (relative stereo) | > 50 | 3.47 | 36.26 |
| O[C@@H]1C[C@H]2C[C@@H]1[C@@H](n1cnc3c(Cl)ncnc31)C2 (relative stereo) | 47.9 | 1.1 |  |
| F[C@H]1C[C@H]2C[C@@H]1C[C@@H]2n1cnc2c(Cl)ncnc21 (relative stereo) | > 50 | 0.95 | 1.96 |
| Clc1ncnc2c1ncn2[C@@H]1CC2CC1[C@@H](n1cnc3c(Cl)ncnc31)C2 | > 50 | 7.83 |  |
| Clc1ncnc2c1ncn2[C@H]1C[C@@H]2C=C[C@H]1C2 (relative stereo) | > 50 | 2.43 | 5.87 |
| O=C1C[C@@H]2C[C@H]1[C@H](n1cnc3c(Cl)ncnc31)C2 (relative stereo) | > 50 | 1.57 |  |
| OCC1CC2CC1CC2n1cnc2c(Cl)ncnc21 (stereo not drawn) | > 50 | 0.91 |  |

— ChEMBL document CHEMBL1166016, “Design, synthesis, and biological evaluation of novel coxsackievirus B3 inhibitors” (Bioorg Med Chem, 2010)
